This is an account of results in PubChem BioAssay (NCI).

Some test systems named below: ACHN renal; BT-549 breast; COLO 205 colon; HCC-2998 colon; HCT-15 colon; NCI-H460 lung; NCI-H522 lung; NCI/ADR-RES ovarian; SK-MEL-28 melanoma; T-47D breast.
Common to all, as to experiment: growth of human tumour cells (NCI), 48 h

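All cell lines were grown in 96-well plates and treated with compound for 48 hours. At the GI50, growth is halved. TGI marks complete inhibition of growth.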

As for `O=C(Cc1ccc(/C=C/C(=O)c2ncc[nH]2)cc1)Nc1ccc(Br)cc1`, the GI50 in the test with ACHN renal is 2.72 µM; with BT-549 breast, 1.55 µM; with COLO 205 colon, 2.57 µM; with HCC-2998 colon, 2.46 µM; in the test with HCT-15 colon it was 0.787 µM; in the test on NCI-H460 lung it was 2.77 µM. The GI50 is 2.76 µM in the test with NCI-H522 lung, 4.61 µM with NCI/ADR-RES ovarian, 3.07 µM in the test on SK-MEL-28 melanoma and 3.82 µM in the test on T-47D breast. For the same compound, the TGI in the test on ACHN renal came out at 5.25 µM; with BT-549 breast, 4.04 µM; with COLO 205 colon it was 5.74 µM; in the test with HCC-2998 colon it was 4.96 µM; with HCT-15 colon, 8.83 µM; with NCI-H460 lung, 8.66 µM. The TGI with NCI-H522 lung was 7.34 µM; in the test on NCI/ADR-RES ovarian, greater than 16.7 µM; with SK-MEL-28 melanoma, 6.65 µM; with T-47D breast, greater than 16.7 µM.

Consider `N#Cc1cc2cc3c4c(c2oc1=O)CCCN4CCC3`, for which the TGI in the test on ACHN renal, in the test on BT-549 breast, in the test with COLO 205 colon, in the test on HCC-2998 colon, in the test on HCT-15 colon and with NCI-H460 lung was greater than 100 µM throughout. The TGI with NCI-H522 lung, in the test on NCI/ADR-RES ovarian, with SK-MEL-28 melanoma and in the test on T-47D breast was greater than 100 µM in each case.

Regarding `COc1cc(Nc2ncc3c(n2)-c2ccc(Cl)cc2C(c2c(F)cccc2OC)=NC3)ccc1C(=O)O`, the GI50 was 2.34 µM with ACHN renal; 5.88 µM with BT-549 breast; 0.0651 µM with COLO 205 colon; 19.2 µM with HCC-2998 colon; 4.77 µM with HCT-15 colon; 0.0412 µM in the test on NCI-H460 lung. For the same compound, the GI50 in the test on NCI-H522 lung is 0.501 µM; with NCI/ADR-RES ovarian it was 1.38 µM; in the test on SK-MEL-28 melanoma, 13.2 µM; with T-47D breast, 12.1 µM. The TGI with ACHN renal is 55.1 µM; in the test with BT-549 breast, greater than 81.1 µM; in the test with COLO 205 colon, 16.7 µM; in the test with HCC-2998 colon, greater than 100 µM; in the test on HCT-15 colon, greater than 100 µM; in the test with NCI-H460 lung, greater than 83.6 µM. The TGI is 3.88 µM in the test with NCI-H522 lung, greater than 100 µM with NCI/ADR-RES ovarian, greater than 92 µM in the test with SK-MEL-28 melanoma and greater than 91.2 µM in the test on T-47D breast.

Consider `c1ccc(Cn2cc3c(c2)-c2oncc2CC3)cc1`, for which the GI50 is 7.74 µM in the test on ACHN renal; 4.31 µM with BT-549 breast; 0.467 µM in the test with COLO 205 colon; 1.25 µM in the test on HCC-2998 colon; 0.863 µM with HCT-15 colon; 0.402 µM with NCI-H460 lung. For the same compound, the GI50 was 1.89 µM in the test on NCI-H522 lung, 0.554 µM in the test on NCI/ADR-RES ovarian, 4.27 µM in the test with SK-MEL-28 melanoma and 2.25 µM in the test on T-47D breast. For the same compound, the TGI is greater than 100 µM with ACHN renal; 98.2 µM in the test on BT-549 breast; 2.55 µM in the test on COLO 205 colon; 4.76 µM in the test on HCC-2998 colon; greater than 100 µM with HCT-15 colon; 7.5 µM in the test on NCI-H460 lung. Also, the TGI in the test on NCI-H522 lung was 8.13 µM; with NCI/ADR-RES ovarian, 7.22 µM; with SK-MEL-28 melanoma, greater than 100 µM; in the test on T-47D breast, greater than 100 µM.

Consider `Cc1cc(N(CCCNc2ccnc3cc(Cl)ccc23)Cc2cccs2)nc(Cl)n1`, for which the GI50 is 5.12 µM in the test on ACHN renal; 3.69 µM in the test with BT-549 breast; 2.24 µM in the test on COLO 205 colon; 4.05 µM in the test on HCC-2998 colon; 2.45 µM in the test on HCT-15 colon; 4.03 µM with NCI-H460 lung. Besides, the GI50 was 2.9 µM in the test on NCI-H522 lung, 2.64 µM with NCI/ADR-RES ovarian, 4.87 µM with SK-MEL-28 melanoma and 1.99 µM with T-47D breast. Also, the TGI came to 19.7 µM with ACHN renal; 15.7 µM in the test with BT-549 breast; 7.8 µM with COLO 205 colon; 17.8 µM with HCC-2998 colon; 12.8 µM in the test on HCT-15 colon; 18.3 µM in the test on NCI-H460 lung. In addition, the TGI in the test with NCI-H522 lung was determined as 18.7 µM; in the test with NCI/ADR-RES ovarian, 28.5 µM; in the test with SK-MEL-28 melanoma, 19 µM; in the test with T-47D breast, 20.6 µM.

Turning to `Cc1ccc(C(=O)Nc2ccc(CN3CCN(C)CC3)c(C(F)(F)F)c2)cc1C#Cc1cncc2ncccc12`, the GI50 is 0.162 µM in the test on ACHN renal; 2.33 µM with BT-549 breast; 0.221 µM in the test with COLO 205 colon; 2.47 µM with HCC-2998 colon; 0.318 µM in the test on HCT-15 colon; 0.428 µM in the test with NCI-H460 lung. The GI50 is 0.323 µM with NCI-H522 lung, 0.502 µM in the test on NCI/ADR-RES ovarian, 0.286 µM in the test on SK-MEL-28 melanoma and 1.58 µM in the test on T-47D breast. For the same compound, the TGI in the test with ACHN renal was 0.999 µM; in the test on BT-549 breast, 12.6 µM; in the test with COLO 205 colon it was 5.56 µM; in the test with HCC-2998 colon, 22.2 µM; in the test with HCT-15 colon, 1.28 µM; in the test on NCI-H460 lung, 5.02 µM. For the same compound, the TGI worked out at 15.6 µM in the test with NCI-H522 lung, 16 µM in the test with NCI/ADR-RES ovarian, 1.55 µM with SK-MEL-28 melanoma and 21.1 µM in the test on T-47D breast.

Regarding `COc1cc2c(cc1OCCCCCCNC(=O)c1cc3ccccc3[nH]1)N=CC1CCCN1C2=O` (stereo not given), the GI50 with ACHN renal is 35.2 µM; with BT-549 breast it was 21.7 µM; with COLO 205 colon, 45.4 µM; with HCC-2998 colon, 35.8 µM; in the test on HCT-15 colon it was 32.1 µM; in the test on NCI-H460 lung it was 16.8 µM. In addition, the GI50 in the test with NCI-H522 lung was 18.7 µM; in the test with NCI/ADR-RES ovarian it was 31.7 µM; in the test with SK-MEL-28 melanoma it was greater than 100 µM; in the test on T-47D breast it was 15.4 µM. For the same compound, the TGI with ACHN renal is greater than 100 µM; with BT-549 breast, 74.2 µM; in the test with COLO 205 colon, greater than 100 µM; in the test on HCC-2998 colon it was greater than 100 µM; in the test with HCT-15 colon, greater than 100 µM; with NCI-H460 lung it was 62.7 µM. Further, the TGI was 88.1 µM with NCI-H522 lung, greater than 100 µM in the test with NCI/ADR-RES ovarian, greater than 100 µM with SK-MEL-28 melanoma and greater than 100 µM in the test with T-47D breast.

Consider `C/C1=C\CC[C@@](C)(O)[C@H]2C[C@H](CC/C(C)=C/CC1)C1(CC1)C(=O)O2`, for which the GI50 with ACHN renal was 16.8 µM; with BT-549 breast, 23.7 µM; in the test on COLO 205 colon, 32.5 µM; with HCC-2998 colon it was 18 µM; in the test on HCT-15 colon, 17.6 µM; in the test on NCI-H460 lung it was 19.6 µM. Further, the GI50 in the test on NCI-H522 lung was 23.1 µM; in the test on NCI/ADR-RES ovarian, 23.6 µM; in the test on SK-MEL-28 melanoma it was 45.3 µM; with T-47D breast it was 36.5 µM. Further, the TGI in the test with ACHN renal was 31.3 µM; with BT-549 breast it was 55.7 µM; with COLO 205 colon, greater than 100 µM; in the test on HCC-2998 colon, 35.2 µM; with HCT-15 colon, 36.8 µM; in the test on NCI-H460 lung, 45.7 µM. The TGI was 62.9 µM in the test on NCI-H522 lung, 57.4 µM in the test with NCI/ADR-RES ovarian, greater than 100 µM with SK-MEL-28 melanoma and greater than 100 µM with T-47D breast.
